Target: T1, human FP receptor (Homo sapiens, UniProt P43088)
T1 construct: expressed in transfected cells
Experiment: Ca2+ signaling, antagonism of 17-phenyl PGF2α response in HEK cells stably transfected with the human FP receptor
Type: cell-based
Procedure: HEK cells stably transfected with the human FP receptor were removed from the culture flasks by approximately 1 min treatment with trypsin 0.05%/0.53 mM EDTA in HBSS (Gibco, Grand Island, N.Y.) at 37° C. Proteolytic activity was arrested by adding 5 ml of 10% fetal bovine serum in DMEM. The cells were consecutively washed in Hank's BSS and medium containing 140 mM NaCl, […], 1 mM MgCl2, 1.5 mM CaCl2, 10 mM HEPES: TRIS, 5 mM glucose, 5 mM Na pyruvate, 0.1% bovine serum albumin at pH 7.4: centrifugation for the washes was performed for 15 minutes at 200 g at room temperature. Cells were counted, resuspended in the above medium and incubated with 2×10^−6 M Fura 2/acetoxymethyl ester in a shaking water bath for 30 minutes at 37° C. The cells were subsequently washed in medium as above and resuspended at a concentration of 2×10^6 cells ml^−1. Aliquots of 0.5 ml cell suspension were then added to autocap microtubes to provide 10^6 cells per experimental determination of intracellular free Ca^2+ concentration ([Ca^2+]i).
Fluorescence was measured in a Perkin-Elmer LS-5 fluorescence spectrophotometer at excitation and emission wavelengths of 340 and 492 nm, respectively, with both slits at 10 nm. […]

T1 sequence (P43088 whole entry): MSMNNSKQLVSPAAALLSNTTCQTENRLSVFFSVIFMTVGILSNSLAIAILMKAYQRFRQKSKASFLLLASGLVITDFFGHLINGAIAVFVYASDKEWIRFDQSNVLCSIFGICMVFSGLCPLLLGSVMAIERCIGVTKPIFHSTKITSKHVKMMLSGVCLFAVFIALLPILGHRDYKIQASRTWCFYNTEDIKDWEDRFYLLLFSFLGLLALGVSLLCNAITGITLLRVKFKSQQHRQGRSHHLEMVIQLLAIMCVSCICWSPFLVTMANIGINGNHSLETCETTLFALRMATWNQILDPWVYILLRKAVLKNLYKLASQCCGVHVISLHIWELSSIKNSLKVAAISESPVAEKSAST

Compound: COC(=O)CCc1ccccc1CC1C2CCC(O2)C1c1nc(C(=O)NCCCCC2CCCCC2)co1 (stereo not shown)
- PGF2α antagonist activity (comparison in words): much less active than the corresponding acid

From patent US6369089B1, “Interheteroaryl 7-oxabicyclic [2.2.1]heptane oxazoles as prostaglandin F2α antagonists” (Allergan Sales, Inc., priority 2000, dated 2002)
